The source of these data is patent publication US7960349B2 (Bristol-Myers Squibb Company, priority 2006, dated 2011).

The structures appear in SMILES notation. Several values for one entry are separate records, joined by “and”; a condition that tells them apart may be missing. Equal entries are not always repeated. Where two headings read alike, the source gives them in different places. Where a SMILES comes first, the peptide text is derived from it. [ ]: non-standard residue; d: D form. The star is where a group is joined. ξ: configuration not given here. Ala(6-(2-MePh)pyridin-3-yl) = Cc1ccccc1-c1ccc(C[C@H](N)C(=O)O)cn1; Bip(2'-Et-4'-OMe) = CCc1cc(OC)ccc1-c1ccc(C[C@H](N)C(=O)O)cc1; Lactoyl(3-(imidazol-4-yl)) = O=C([C@@H](O)Cc1c[nH]cn1)*; Bip(2'-Me) = Cc1ccccc1-c1ccc(C[C@H](N)C(=O)O)cc1; ξαMePhe(2-F) = CC(N)(Cc1ccccc1F)C(=O)O; Thr(3ξ) = CC(O)[C@H](N)C(=O)O; ξαMeP = CC1(C(=O)O)CCCN1; Aib = CC(C)(N)C(=O)O

For one data set, the system named is ob/ob mice. The data set is described as follows: Intraperitoneal glucose tolerance test (ipGTT) in ob/ob mice after sc injection. The class given is in vivo, mouse. To be noted: for Potency in ob/ob mice: % AUC Reduction in Plasma Glucose in an IP Glucose Tolerance Test after SC Injection of Compound: 10 nmol/kg sc, relative to vehicle-treated group; for effect on postprandial plasma insulin / effect on postprandial plasma glucose: sc; for effect on postprandial plasma glucose: 0 to 180 or 210 min; for Potency in ob/ob mice ED50: sc injection, plasma glucose AUC in ipGTT. The procedure:
(§1) Peptides were dissolved in an appropriate vehicle at a concentration in nmol/ml equivalent to the dose that was to be administered in nmol/kg so that each mouse would receive the same volume/weight of dosing solution. Male C57BL/6-ob/ob mice (10 weeks old) were randomized into groups of 6 mice per group based on fed plasma glucose and body weight. After an overnight fast, mice were weighed and placed in the experimental lab. After 30 min in the environment, the mice were bled via tail tip at −30 min and immediately injected subcutaneously (sc) with vehicle or the peptide dissolved in vehicle (0.1 ml solution/100 g body weight). At time 0 the mice were bled and then injected intraperitoneally with 50% glucose (2 g/kg) to initiate the intraperitoneal glucose tolerance test (ipGTT). The mice were bled 30, 60, 120 and 180 min after the glucose injection. Blood samples were drawn into potassium EDTA, placed on ice during the study and subsequently centrifuged for 10 min at 3000 rpm at 4° C. Plasma samples were diluted 11-fold for glucose analysis in the Cobas System. Another 5 μl plasma sample was diluted 5-fold with 20 μl of Sample Diluent (Insulin ELISA assay kit, Crystal Chem. Inc.) and stored at −20° C. for subsequent analysis using the Ultra Sensitive Mouse Insulin ELISA kit (Crystal Chem Inc.).

Data set [1] in a line: Exposure during ipGTT in ob/ob mice. The class given is in vivo, mouse. To be noted: sc injection. The procedure:
as §1

Data set [2] can be described thus: Dog pharmacokinetic study. The format is in vivo. Particulars: for half-life: read-out: t½ (converted). The procedure: The pharmacokinetic parameters of the Compounds of SEQ ID NO: 9, 118, 151 and 158 were determined in male beagle dogs (n=3-4, 14±1 kg). Following an overnight fast, each animal received the Compounds of SEQ ID NO: 9, 118, 151 and 158 either as an intravenous bolus via femoral vein (67 μg/kg) or by subcutaneous injection given at near the shoulder blades (67 μg/kg). Each animal received both intravenous and subcutaneous doses with a one-week washout between doses following a crossover design. The dosing vehicle for both routes of administration was propylene glycol:pH 7.4 phosphate buffer (50:50) or 0.2 M Tris (pH 8.0). Serial blood samples were collected in EDTA-containing microcentrifuge tubes at predose, 0.083, 0.25, 0.5, 0.75, 1, 2, 4, 6, 8, 24, and 30 hours post-dose after intravenous administration; at predose, 0.25, 0.5, 0.75, 1, 2, 4, 6, 8, 24, and 30 hours post-dose after subcutaneous administration. Approximately 0.3 mL of blood was collected at each time point. Blood samples were immediately centrifuged at 4° C. The obtained plasma was frozen with dry ice and stored at −20° C. Plasma drug levels were determined using the LC-MS/MS assay described below.
Plasma samples from the in vivo dog study were prepared for analysis by precipitating plasma proteins with two volumes of AcCN containing an internal standard. The samples were vortex mixed and the precipitated proteins were removed by centrifugation. The resulting supernatants were transferred to a 96-well plate and 10 μL were injected for TFC-LC/MS/MS analysis.
The TFC-HPLC system (Cohesive TX-1 Flux, Aria 2300 System) consisted of a loading pump, an eluting pump, and a CTC PAL autosampler (Cohesive Technologies, Franklin, Mass.). The columns used were Phenomenex Synergi Fusion-RP (C18, 2.0×50 mm, 4μ) (Phenomenex, Torrance, Calif.) as the analytical column and Turbo-Flow (TF) HTLC Cyclone column (0.5×50 mm) (Cohesive Technologies, Franklin, Mass.) as the extraction column for on-line sample processing. The mobile phase A consisted of 10 mM ammonium formate and 0.1% formic acid in water and mobile phase B consisted of 0.1% formic acid in AcCN. Turbo-Flow Chromatography was used to obtain a cleaner sample. A rapid gradient elution was used for analyte separation. The samples were injected onto the Turbo-Flow HTLC Cyclone column and analytes were separated from biological fluid components with using 100% H2O at 1.5 mL/min. The TF column was back flushed and analytes were back eluted from the TF to HPLC analytical column using a ramp to 60% B over 2 min and held there for 30 seconds at 0.3 mL/min to separate and to elute the analytes from the HPLC column into the mass spectrometer. Both columns were washed for an additional minute and then both columns were re-equilibrated at initial conditions.
The HPLC was interfaced to a Sciex API 4000 mass spectrometer (Applied Biosystems, Foster City, Calif.) and was equipped with a TurboIonspray ionization source. Ultra high purity nitrogen was used as the nebulizing and turbo-gas. The temperature of turbo-gas was set at 300° C. and the interface heater was set at 60° C. Selected Reaction Monitoring (SRM) was used for data acquisition. Multiple charged ion species, i.e. (M+2H)^2+ for Compound of SEQ ID NO: 158 were selected in Q1 and were collisionally dissociated with high purity nitrogen at a pressure of 3.5×10^−3 torr in Q2 to form specific product ions which were subsequently monitored in Q3. The ion transitions and voltages are summarized below (Table 4).
The standard curve concentrations, ranging from 1 to 1000 nM, were analyzed in duplicate. The curves were fitted with a linear regression weighted by reciprocal concentration […]. Quality control (QC) samples, prepared in blank matrix at the same concentrations as the standards were also analyzed in each analytical set. […]

Setting [3] is: vehicle propylene glycol/pH 7.4 phosphate buffer (1:1).
The mark [4] stands for this setting: 30 nmol/kg sc, ipGTT ob/ob mice.
Setting [5] is: dog, plasma, 67 ug/kg, male beagle dogs, intravenous 67 μg/kg.
The mark [6] stands for this setting: dog, plasma, sc, 67 ug/kg, male beagle dogs, subcutaneous 67 μg/kg.
Where [7] appears, read: vehicle 0.2 M Tris buffer (pH 8.0).

Take `CCc1cc(OC)ccc1-c1ccc(C[C@H](NC(=O)[C@H](CC(=O)O)NC(=O)[C@H](CO)NC(=O)[C@@H](NC(=O)C(C)(Cc2ccccc2F)NC(=O)[C@@H](NC(=O)CNC(=O)[C@H](CCC(=O)O)NC(=O)C(C)(C)NC(=O)[C@@H](N)Cc2c[nH]cn2)C(C)O)C(C)O)C(=O)N[C@@H](Cc2ccc(-c3ccccc3C)cc2)C(N)=O)cc1` (stereo partly drawn) [Compound I, reference compound] (H-H[Aib]EG[Thr(3ξ)][ξαMePhe(2-F)][Thr(3ξ)]SD[Bip(2'-Et-4'-OMe)][Bip(2'-Me)]-NH2): the “Potency in ob/ob mice: % AUC Reduction in Plasma Glucose in an IP Glucose Tolerance Test after SC Injection of Compound” value (“Potency in ob/ob mice: % AUC Reduction” below) in the data set with ob/ob mice was −15% (p = 0.247, NS). Moreover, in the data set on ob/ob mice (ipGTT ob/ob mice), the “effect on postprandial plasma insulin” value is “statistically significant dose-dependent increase” and the “effect on postprandial plasma glucose” value is given as “decreasing in a dose-dependent manner”. Also, the “Exposure/dose during ipGTT in ob/ob mice” value in data set [1] is listed as 22 nM * h/nmol/kg. In addition, the “Exposure in dogs (sc@67 μg/kg)” value in data set [2] (setting [3]) is 0.089 µM·h.
On to `CCc1cc(OC)ccc1-c1ccc(C[C@H](NC(=O)[C@H](CC(=O)O)NC(=O)[C@H](CO)NC(=O)[C@@H](NC(=O)C(C)(Cc2ccccc2F)NC(=O)[C@@H](NC(=O)CNC(=O)[C@H](CCC(=O)O)NC(=O)C(C)(C)NC(=O)[C@@H](N)Cc2c[nH]cn2)C(C)O)C(C)O)C(=O)N[C@@H](Cc2ccc(-c3ccccc3C)nc2)C(N)=O)cc1` (stereo partly drawn) [SEQ ID NO: 9] (H-H[Aib]EG[Thr(3ξ)][ξαMePhe(2-F)][Thr(3ξ)]SD[Bip(2'-Et-4'-OMe)][Ala(6-(2-MePh)pyridin-3-yl)]-NH2), for which, in the data set with ob/ob mice, the “Potency in ob/ob mice: % AUC Reduction” value is recorded as −68% (p < 0.0001) and the “Potency in ob/ob mice ED50” value worked out at 5 nmol/kg. Also, in the data set with ob/ob mice (setting [4]), the “maximum increase in postprandial plasma insulin AUC” value was found to be 187.7%. For the same molecule, in the data set on ob/ob mice (100 nmol/kg sc, ipGTT ob/ob mice), the “plasma glucose AUC decreased” value worked out at 85.8%. In the data set with ob/ob mice (listed as 9), the “Potency in ob/ob mice ED50” value is recorded as “ED50 = 5 nmoles/kg”. Besides, in the data set with ob/ob mice (ipGTT ob/ob mice), the “effect on postprandial plasma insulin” value is “significant increase” and the “effect on postprandial plasma glucose” value is recorded as “statistically significant decrease”. In addition, the “Exposure/dose during ipGTT in ob/ob mice” value in data set [1] amounted to 18 nM * h/nmol/kg. Moreover, in data set [2] (setting [5]), the area under the curve (AUC) stood at 0.529 ± 0.125 µM·h, the MRT is 2.4 ± 0.5 h and the half-life is 7.1 ± 2.1 h. For the same molecule, in data set [2] (dog, plasma, 67 ug/kg, male beagle dogs, intravenous 67 μg/kg, read-out: CLp), the clearance was determined as 1.4 ± 0.4 mL/min/kg. The Vd in data set [2] (dog, plasma, 67 ug/kg, male beagle dogs, intravenous 67 μg/kg, read-out: Vss) was determined as 0.21 ± 0.07 L/kg. In data set [2] (setting [6]), the AUC came to 0.452 ± 0.153 µM·h, the Cmax stood at 116 ± 34 nM, the MRT came to 3.6 ± 1 h and the Tmax is 1.1 ± 0.6 h. Moreover, the half-life in data set [2] (setting [6]) was 2.6 ± 1.2 h. The bioavailability in data set [2] (dog, plasma, male beagle dogs, subcutaneous 67 μg/kg vs intravenous) was 93 ± 22%. For the same molecule, in data set [2] (setting [7]), the “Exposure in dogs (sc@67 μg/kg)” value turned out to be 0.452 µM·h. The “Exposure in dogs (sc@67 μg/kg)” value in data set [2] (setting [3]) stood at 1.23 µM·h.
Take `CCc1cc(OC)ccc1-c1ccc(C[C@H](NC(=O)[C@H](CC(=O)O)NC(=O)[C@H](CO)NC(=O)[C@@H](NC(=O)C(C)(Cc2ccccc2F)NC(=O)[C@@H](NC(=O)CNC(=O)[C@H](CCC(=O)O)NC(=O)C2(C)CCCN2C(=O)[C@@H](N)Cc2c[nH]cn2)[C@@H](C)O)[C@@H](C)O)C(=O)N[C@@H](Cc2ccc(-c3ccccc3C)nc2)C(N)=O)cc1` (stereo partly drawn) [SEQ ID NO: 118] (H-H[ξαMeP]EGT[ξαMePhe(2-F)]TSD[Bip(2'-Et-4'-OMe)][Ala(6-(2-MePh)pyridin-3-yl)]-NH2): in the data set with ob/ob mice, the “Potency in ob/ob mice: % AUC Reduction” value was −70% (p < 0.001) and the “Potency in ob/ob mice ED50” value was 2.5 nmol/kg. Also, in the data set with ob/ob mice (setting [4]), the “plasma glucose AUC decreased” value is recorded as 81%. In the data set with ob/ob mice (listed as 118), the “Potency in ob/ob mice ED50” value is “ED50 = 2.5 nmoles/kg”. The “effect on postprandial plasma glucose” value with ob/ob mice (ipGTT ob/ob mice) was “statistically significant decrease”. In addition, the “Exposure/dose during ipGTT in ob/ob mice” value in data set [1] was 4.4 nM * h/nmol/kg. Moreover, the “Exposure in dogs (sc@67 μg/kg)” value in data set [2] (setting [3]) was determined as 4.02 µM·h.
In the case of `CCc1cc(OC)ccc1-c1ccc(C[C@H](NC(=O)[C@H](CC(=O)O)NC(=O)[C@H](Cc2c[nH]cn2)NC(=O)[C@@H](NC(=O)C(C)(Cc2ccccc2F)NC(=O)[C@@H](NC(=O)CNC(=O)[C@H](CCC(=O)O)NC(=O)C2(C)CCCN2C(=O)[C@@H](O)Cc2c[nH]cn2)[C@@H](C)O)[C@@H](C)O)C(=O)N[C@@H](Cc2ccc(-c3ccccc3C)nc2)C(N)=O)cc1` (stereo partly drawn) [SEQ ID NO: 151] ({Lactoyl(3-(imidazol-4-yl))}-[ξαMeP]EGT[ξαMePhe(2-F)]THD[Bip(2'-Et-4'-OMe)][Ala(6-(2-MePh)pyridin-3-yl)]-NH2), in the data set on ob/ob mice (3 nmol/kg sc, ipGTT ob/ob mice), the “plasma glucose AUC decreased” value was determined as 67%. For the same molecule, the “Potency in ob/ob mice ED50” value was 1 nmol/kg and 2 nmol/kg in the data set with ob/ob mice; “ED50 = 1 nmoles/kg” in the data set on ob/ob mice (listed as 151). Moreover, in the data set with ob/ob mice (ipGTT ob/ob mice), the “effect on postprandial plasma glucose” value is listed as “statistically significant decrease”. For the same molecule, the “Exposure/dose during ipGTT in ob/ob mice” value in data set [1] is recorded as 16 nM * h/nmol/kg. The “Exposure in dogs (sc@67 μg/kg)” value in data set [2] (setting [7]) worked out at 1.566 µM·h.

In general, AUC refers to concentration integrated over time. For orientation: MRT means the average time that molecules of a dose stay in the body. Usually Cmax stands for the maximum level reached in the sampled fluid or tissue. In general, Tmax refers to the time from dosing to the highest level. As a reminder, the bioavailability is the share of a dose that reaches the circulation, judged against a reference dose that is usually intravenous.
